Test results as given in the supplement of paper PMC10477900.
Counter-ions that a name gives are not always drawn.

What was measured:
HCT116 [1] = details: 72 h
Procedure: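 HCT116 control and MTA1-KO (CRISPR) HCT116 cells were seeded in 384-well plates (800 cells/well), treated 16 h later with 237 metabolism-related anticancer drugs at five doses (10 uM, 2 uM, 400 nM, 80 nM, 16 nM) for 72 h, two replicates; viability by CCK8. Values are % inhibition of viability relative to untreated cells, plus fitted IC50.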

HCT116 [2] = experiment: viability inhibition vs untreated; higher = more cytotoxic; details: 72 h

| SMILES | IC50 (HCT116 [1]; genotype: MTA1-KO) | IC50 (HCT116 [1]; genotype: control) | viability inhibition (HCT116 [2]; genotype: MTA1-KO, 16 nM) | viability inhibition (HCT116 [2]; genotype: MTA1-KO, 80 nM) | viability inhibition (HCT116 [2]; genotype: MTA1-KO, 400 nM) | viability inhibition (HCT116 [2]; genotype: MTA1-KO, 2000 nM) | viability inhibition (HCT116 [2]; genotype: MTA1-KO, 10000 nM) | viability inhibition (HCT116 [2]; genotype: control, 16 nM) | viability inhibition (HCT116 [2]; genotype: control, 80 nM) | viability inhibition (HCT116 [2]; genotype: control, 400 nM) | viability inhibition (HCT116 [2]; genotype: control, 2000 nM) | viability inhibition (HCT116 [2]; genotype: control, 10000 nM) |
| --- | --- | --- | --- | --- | --- | --- | --- | --- | --- | --- | --- | --- |
| O=c1c2cc(O)c(O)cc2oc2cc(O)c([C@@H]3O[C@H](CO)[C@@H](O)[C@H](O)[C@H]3O)c(O)c12 [Mangiferin] | > 10 µM | > 10 µM | -12.5% | -17.6% | -11.2% | -10.4% | -14.8% | -7.62% | 8.64% | 4.62% | 6.09% | 1.62% |
| COc1ccc2[nH]cc(CCNC(C)=O)c2c1 [Melatonine] | > 10 µM | > 10 µM | 11.6% | 12.1% | 6.76% | 7.43% | 8.55% | 10.2% | 9.39% | 9.78% | 24.1% | 14.5% |
| S=c1nc[nH]c2nc[nH]c12 [Mercaptopurine] | 6.61 µM | 2.74 µM | -23.8% | -26.8% | -16.8% | -13.3% | 63% | -20.2% | -15.2% | -11.9% | 24.6% | 90.5% |
| CN(C)C(=N)N=C(N)N [Metformin hydrochloride] | > 10 µM | > 10 µM | -20.9% | -15.7% | -16.8% | -16.1% | -14.1% | -3.73% | -8.51% | 4.88% | 7.24% | 3.98% |
| CC(=O)N=c1sc(S(N)(=O)=O)nn1C [Methazolamide] | > 10 µM | > 10 µM | -8.89% | -28.2% | -14.6% | -23.2% | -21.9% | 6.26% | -6.63% | -3.65% | -3.04% | -0.243% |
| COc1ccccc1OCC(O)COC(N)=O (stereo not given) [Methocarbamol] | > 10 µM | > 10 µM | -9.86% | -16.2% | -9.99% | -8.84% | -12% | -5.51% | -3.73% | -0.351% | 5.2% | 11% |
| CN(Cc1cnc2nc(N)nc(N)c2n1)c1ccc(C(=O)N[C@@H](CCC(=O)O)C(=O)O)cc1 [Methotrexate] | > 10 µM | 8.92 µM | 7.18% | -2.93% | -6.45% | -1.18% | 33% | 17.9% | 13.5% | 16.6% | 6.71% | 63.6% |
| CC[C@H](C)C(=O)O[C@H]1CCC=C2C=C[C@H](C)[C@H](CC[C@@H]3C[C@@H](O)CC(=O)O3)[C@H]21 [Mevastatin] | > 10 µM | > 10 µM | -20.4% | -7.46% | -17.3% | -17.5% | -22.4% | -7.08% | 9.09% | 5.14% | 1.68% | 23.8% |
| O=C(c1ccc(NS(=O)(=O)c2cccc3cccnc23)cc1)N1CCN(CC2CC2)CC1 [Mitapivat] | > 10 µM | > 10 µM | 1.32% | 0.728% | -12.6% | -14.4% | -2.88% | -8.53% | -14.2% | -22.8% | -10.3% | -12.3% |
| O=C(O)c1cccnc1Nc1cccc(C(F)(F)F)c1 [Niflumic acid] | > 10 µM | > 10 µM | -15.2% | -17.4% | -11.9% | -15.8% | -9.84% | 3.66% | 11.1% | -0.91% | -2.33% | 0.571% |
| Cc1ccc2nc(N)[nH]c(=O)c2c1Sc1ccncc1 [Nolatrexed] | 9.66 µM | > 10 µM | 8.71% | 2.94% | -1.21% | 1.75% | 76% | -21.6% | -20.5% | 4.76% | -22.2% | -11.3% |
| COc1cccc2cc(-c3nc(C4CCC(C(=O)O)CC4)n4ncnc(N)c34)[nH]c12 (stereo not given) [OSI027] | > 10 µM | > 10 µM | 12.5% | 9.23% | 10.1% | -2.44% | 2.62% | -12.5% | -20.5% | -21.1% | 13.8% | 42.3% |
| Cc1c(-c2cnccn2)ssc1=S [Oltipraz] | > 10 µM | > 10 µM | -30.8% | -24.9% | -26.7% | -26.6% | -33.9% | -15.3% | -6.71% | -20.1% | -19.1% | -6.16% |
| COC(=O)N1CCN(Cc2cccc(NC(=O)Nc3ccc(C)nc3)c2F)CC1 [Omecamtiv mecarbil] | > 10 µM | > 10 µM | -10% | -12.1% | -17.5% | -17.9% | 8.94% | 8.94% | 4.13% | -7.43% | 1.24% | 5.67% |
| CCCCCCCCCCC[C@@H](C[C@@H]1OC(=O)[C@H]1CCCCCC)OC(=O)[C@H](CC(C)C)NC=O [Orlistat] | > 10 µM | > 10 µM | -6.57% | -2.27% | -2.16% | -13.4% | 15.7% | 4.58% | -13.3% | -7.69% | -2.81% | 37% |
| O=C(Nc1ccc(O)cc1)c1ccccc1O [Osalmid] | > 10 µM | > 10 µM | -19.6% | -14.3% | -16% | -6.29% | -7.75% | -15.5% | -18.3% | -10.9% | -10.7% | 5% |
| OC(CNc1ccccc1)Cn1c2ccc(Br)cc2c2cc(Br)ccc21 (stereo not given) [P7C3] | > 10 µM | > 10 µM | -3.09% | -13% | -15.4% | -15.3% | 6.71% | 10.1% | -2.92% | 4.14% | -4.2% | 7.54% |
| O=C(/C=C/c1ccc2ccccc2n1)c1ccncc1 [PFK015] | 2.71 µM | 2.17 µM | -28% | -23.8% | -16.3% | -14% | 124% | -7.66% | -7.18% | -5.47% | 34% | 124% |
| O=C(/C=C/c1ccc2ccc(C(F)(F)F)cc2n1)c1ccncc1 [PFK158] | 3.1 µM | 3.89 µM | -5.2% | -29.6% | -31.5% | -28.1% | 121% | 8.64% | -5.17% | 1.7% | -5.11% | 96.2% |
| CCCCCCCCCCCCc1ccc(S(=O)(=O)Nc2nncs2)cc1 [PHT427] | > 10 µM | > 10 µM | -19.3% | -22.1% | -13% | -17.1% | -3.56% | 20.4% | -3.89% | -1.76% | -0.669% | 9.06% |
| Nc1cc(C(F)(F)F)c(-c2nc(N3CCOCC3)nc(N3CCOCC3)n2)cn1 [PI3K-IN-2] | 0.468 µM | 0.7 µM | 23.9% | 23% | 49.3% | 88.7% | 90.2% | -12.8% | 0.462% | 27.1% | 73.3% | 83.3% |
| Oc1cccc(-c2nc(N3CCOCC3)c3oc4ncccc4c3n2)c1 [PI103] | 1.82 µM | 5.97 µM | 7.63% | -22.6% | -6.55% | 42.3% | 80.5% | -15.1% | -2.17% | -8.02% | -2.63% | 80.1% |
| CC1=C(CSC(=S)N2CCCCC2)C(=O)c2ccccc2C1=O [PKM2 inhibitor] | 0.861 µM | > 10 µM | -2.72% | -15.5% | -11% | 79.7% | 65.9% | -0.424% | -10.4% | -5.1% | 5.17% | 33.3% |
| Nc1ncnc2c1c(-c1cnc3[nH]ccc3c1)nn2C1CCCC1 [PP121] | 0.675 µM | 0.874 µM | 14.3% | 12.8% | 43.5% | 90.3% | 111% | 10.8% | 16.8% | 25.2% | 86.4% | 104% |
| COCC1(CO)C(=O)C2CCN1CC2 (stereo not given) [PRIMA-1Met] | > 10 µM | > 10 µM | 7.04% | 1.21% | 20.1% | -5.66% | 5.13% | 13.6% | 13% | 5.28% | 1.17% | 30.6% |
| COc1ccc(COc2cc3oc(=O)c4cc(C(C)O)ccc4c3cc2OC)cc1 (stereo not given) [Palomid 529] | 0.283 µM | 1.11 µM | -7.41% | 23.6% | 37.3% | 64.4% | 90.1% | 7.44% | 22.7% | 38.9% | 54.6% | 86.9% |
| C=C1C(=O)O[C@H]2[C@H]1CC/C(C)=C/CC[C@@]1(C)O[C@@H]21 [Parthenolide] | 2.9 µM | 6.58 µM | 13.7% | 23.4% | 17.3% | 27.8% | 114% | -4.45% | 2.37% | -14.2% | -17.8% | 100% |
| Nc1nc2[nH]cc(CCc3ccc(C(=O)N[C@@H](CCC(=O)O)C(=O)O)cc3)c2c(=O)[nH]1 [Pemetrexed Disodium Hydrate] | 1.71 µM | > 10 µM | -0.998% | 0.351% | -2.35% | 34.3% | 60.9% | -14.7% | -8.65% | -11.7% | -6.77% | 5.15% |
| Nc1nc2[nH]cc(CCc3ccc(C(=O)N[C@@H](CCC(=O)O)C(=O)O)cc3)c2c(=O)[nH]1 [Pemetrexed disodium] | > 10 µM | 1.18 µM | -3.16% | 1.56% | 17.8% | 28.6% | 32.9% | 21.1% | 13.2% | 10.5% | 70.6% | 69.4% |
| NC(N)=NC(N)=NCCc1ccccc1 [Phenformin hydrochloride] | > 10 µM | > 10 µM | -11.4% | -9.26% | -10.6% | -4.27% | 20.1% | 12.5% | 18.4% | 9.46% | 8.84% | 42.4% |
